Test results published in patent US20210352895A1, “SYNERGISTIC PESTICIDAL COMPOSITIONS AND METHODS FOR DELIVERY OF ACTIVE INGREDIENTS” (0903608 B.C. Ltd., priority 2018, published 2021).
Where “and” joins values, the source holds several entries; their conditions need not be identical. Identical values can stand only once. Like-named read-outs stand apart in the source and are kept apart here.

How the values were obtained:
[1] = system: Sclerotinia sclerotiorum; assay: Synergistic Growth Inhibition Assay (MIC / FIC index, resazurin, 96-well) on Sclerotinia sclerotiorum; format: cell-based; details: for MIC (A): Compound A alone
Experimental: (§1) In some embodiments, the synergistic action between the pesticidal active ingredient, and the at least one C4-C10 (or alternatively C11 or C12) saturated or unsaturated aliphatic acid components of the pesticidal compositions according to embodiments of the present disclosure was tested using a Synergistic Growth Inhibition Assay, which is derived from and related to a checkerboard assay as is known in the art for testing of combinations of antimicrobial agents. In the Synergistic Growth Inhibition Assay used in accordance with some embodiments of the present disclosure, multiple dilutions of combinations of pesticidal active ingredient and at least one C4-C10 saturated or unsaturated aliphatic acid agents are tested in individual cells for inhibitory activity against a target pest or pathogenic organism. In one such embodiment, the combinations of pesticidal active ingredient and C4-C10 (or alternatively C11 or C12) saturated or unsaturated aliphatic acid agents may preferably be tested in decreasing concentrations. In a further such embodiment, the combinations of pesticidal active ingredient and C4-C10 (or alternatively C11 or C12) saturated or unsaturated aliphatic acid agents may be tested in increasing concentrations. These multiple combinations of the pesticidal active ingredient and at least one C4-C10 (or alternatively C11 or C12) saturated or unsaturated aliphatic acid agents may be prepared in 96-well microtiter plates. In one such embodiment, the Synergistic Growth Inhibition Assay then comprises rows which each contain progressively decreasing concentrations of the pesticidal active ingredient and one or more C4-C10 (or alternatively C11 or C12) saturated or unsaturated aliphatic acid agents to test for the MIC of the agents in combination at which growth of the target pest or pathogen is inhibited. Thus, each well of the microtiter plate is a unique combination of the two agents, at which inhibitory efficacy of the combination against the target pest or pathogen can be determined.
(§2) In one embodiment according to the present disclosure, for each row of microtiter cells in the Synergistic Growth Inhibition Assay, the FIC index is calculated from the lowest concentration of the pesticidal active ingredient and one or more C4-C10 saturated or unsaturated aliphatic acid agents necessary to inhibit growth of a target pest or pathogen. The FIC of each component is derived by dividing the concentration of the agent present in that well of the microtiter plate by the minimal inhibitory concentration (MIC) needed of that agent alone to inhibit growth of the target pest or pathogen. The FIC index is then the sum of these values for both agents in that well of the microtiter plate. The FIC index is calculated for each row as follows:
(§3) FICindex=MICa/MICA+MICb/MICB
(§4) Fractional inhibitory concentration indices may then used as measure of synergy. […] When the FIC index is equal to 1, the combination is additive.
(§5) Then, serial dilutions of these initial compositions in successive wells in the row of the microtiter plate were used to assay the pesticidal composition under the same conditions to determine the concentration of the composition combining the two agents corresponding to the microtiter well in which growth inhibition of the target pest or organism ceases.
Similarly to as described above, Resazurin was used as an indicator of growth or inhibition of growth of Sclerotinia sclerotiorum in the exemplary Synergistic Growth Inhibition Assay. In addition to the color change of the resazurin, an optical or visual examination of the microtiter well may also be made to additionally determine the presence of growth or inhibition of growth of the Sclerotinia sclerotiorum.

[2] = system: Alternaria solani; assay: Synergistic Growth Inhibition Assay (MIC / FIC index) on Alternaria solani; format: cell-based; details: Alternaria solani; for MIC: 7 days incubation
Experimental: as §1, §2, §3, §4, §5
Alternatively, other suitable representative pest or pathogen organisms may be used to determine synergy of combinations of pesticidal active ingredient agents and one or more C4-C10 (or alternatively C11 or C12) saturated or unsaturated aliphatic acid agents in accordance with embodiments of the present disclosure. For example, other representative fungal pathogens may be used, such as but not limited to Leptosphaeria maculans, Sclerotinia spp. and Verticillium spp.

[3] = system: Botrytis cinerea; assay: Synergistic Growth Inhibition Assay (MIC / FIC index, resazurin, 96-well) on Botrytis cinerea; format: cell-based; details: for MIC: 48 h, Compound B alone, read-out: MIC (B)
Experimental: as §1, §2, §3, §4, §5
Similarly to as described above, Resazurin was used as an indicator of growth or inhibition of growth of Botrytis cinerea in the exemplary Synergistic Growth Inhibition Assay. In addition to the color change of the resazurin, an optical or visual examination of the microtiter well may also be made to additionally determine the presence of growth or inhibition of growth of the Botrytis cinerea.

[4] = system: Trichoplusia ni; assay: In-vitro insecticidal efficacy of Pylon (chlorfenapyr) with unsaturated aliphatic acids in artificial diet, Colby synergy factor; format: in vivo, Trichoplusia ni (cabbage looper)
Experimental: A stock solution was prepared for each of trans-2-hexenoic acid and trans-3-hexenoic acid (both available from Sigma-Aldrich, St. Louis, Mo., USA), by dissolving each exemplary unsaturated aliphatic acid in 100% dimethylsulfoxide (DMSO) at a concentration of 20 mg/mL (20,000 ppm). A stock solution for the potassium salt of (2E,4E)-2,4-hexadienoic acid was prepared by dissolving the salt in water to form a 20 mg/mL (20,000 ppm) solution.
An artificial diet suitable for Trichoplusia ni (cabbage looper caterpillar) was prepared according to the modified McMorran artificial diet recipe known in the entomology field (containing agar, casein, potassium hydroxide, alphacel, Wesson's salt mix, sugar, toasted wheat germ, choline chloride, ascorbic acid, methyl paraben, aureomycin, linseed oil and vitamin solution).
The treated artificial diet was then used to fill each well of a 24-well treatment plate with approximately 0.5 mL of artificial diet, which was allowed to solidify at room temperature and stored overnight at approximately 4 C. […] Each experiment contained 3 replicates, and was repeated at least 3 times.
(§6) While for SF<1, antagonism is present and for SF=1, the efficacy of the compounds is merely additive.

[5] = system: Fusarium oxysporum; assay: Synergistic Growth Inhibition Assay (MIC / FIC index, resazurin, 96-well) on Fusarium oxysporum; format: cell-based; details: for MIC: 48 h, read-out: MIC (B), Compound B alone; for MIC (A): Compound A alone
Experimental: as §1, §2, §3, §4, §5
Resazurin dye (also known as Alamar blue dye) was used as an indicator to determine the presence of growth or inhibition of growth of Fusarium oxysporum in the wells of the 96 well microtiter plates used in the exemplary Synergistic Growth Inhibition Assay. In addition to the color change of the resazurin dye in the presence of growth of the Fusarium oxysporum, an optical or visual examination of the microtiter well may also be made to additionally determine the presence of growth or inhibition of growth of the Fusarium oxysporum.

[6] = Solubility / effective solubilized concentration in 10% DMSO/90% PDB by HPLC; details: DMSO stock diluted 10-fold in PDB; verified by HPLC
Experimental: This solution was diluted 10-fold in potato dextrose broth (PDB) to give a concentration of 0.05 mg/mL in 10% DMSO/90% PDB.

[7] = system: Trichoplusia ni; assay: In-planta insecticidal efficacy of Pylon (chlorfenapyr) with unsaturated aliphatic acids on sprayed green cabbage plants, Colby synergy factor; format: in vivo, Trichoplusia ni (cabbage looper); details: 0.06 mg/mL aliphatic acid (salt)
Experimental: A stock solution for the potassium salt of (2E,4E)-2,4-hexadienoic acid was prepared by dissolving the salt in water to form a 20 mg/mL (20,000 ppm) solution. […] Each experiment was repeated at least 3 times.
as §6

[8] = Compound A alone, Botrytis cinerea, incubation period of 48 hours
[9] = aliphatic acid (salt) 0.05 mg/mL
[10] = aliphatic acid (salt) 0.30 mg/mL

## CO/C=C(/C(=O)OC)c1ccccc1COc1cccc(C(F)(F)F)n1 [Picoxystrobin, reference compound]
[1]; 7 days incubation
  MIC (A): 500 µg/mL
[2]; Compound A alone, incubation period of 7 days
  MIC (A): 500 µg/mL
[3]; [8]
  MIC (A): 250 µg/mL

## CC=CC=CC(=O)[O-].[K+] [2,4-hexenoic acid-Ksalt]
[4]; [9]
  72 hr Obs. Efficacy: 4%
  90 hr Obs. Efficacy: 4%
  120 hr Obs. Efficacy: 4%
[4]; [10]
  72 hr Obs. Efficacy: 13%
  90 hr Obs. Efficacy: 13%
  120 hr Obs. Efficacy: 4%

## O=C(O)CCCCCCCO [8-hydroxyoctanoic acid]
[5]; Fusarium oxysporum, Fusarium oxysporum, 48 hours incubation
  MIC: 5000 µg/mL
[5]; Fusarium oxysporum, Fusarium oxysporum, incubation period of 48 hours
  MIC: 5000 µg/mL
[1]; Sclerotinia sclerotiorum, read-out: MIC (B), Compound B alone, Sclerotinia sclerotiorum, 7 days incubation
  MIC: 2500 µg/mL
[1]; Sclerotinia sclerotiorum, read-out: MIC (B), Compound B alone, Sclerotinia sclerotiorum, incubation period of 7 days
  MIC: 5000 µg/mL
[2]; read-out: MIC (B), Compound B alone
  MIC: 2500 µg/mL

## CO/C=C(/C(=O)OC)c1ccccc1Oc1cc(Oc2ccccc2C#N)ncn1 [Azoxystrobin, reference compound]
[5]; 48 hours incubation
  MIC (A): 75 µg/mL and 150 µg/mL
[5]; Fusarium oxysporum, 2-fold dilutions, incubation period of 48 hours
  MIC (A): 150 µg/mL
[5]; Fusarium oxysporum, incubation period of 48 hours
  MIC (A): 150 µg/mL
[1]; 7 days incubation
  MIC (A): 150 µg/mL and 75 µg/mL
[1]; Sclerotinia sclerotiorum, 2-fold dilutions, incubation period of 7 days
  MIC (A): 150 µg/mL
[1]; Sclerotinia sclerotiorum, incubation period of 7 days
  MIC (A): 150 µg/mL
[3]; Compound A alone, 48 hours incubation
  MIC (A): 37.5 µg/mL and 75 µg/mL
[3]; Compound A alone, Botrytis cinerea, incubation period of 2 days
  MIC (A): 150 µg/mL
[3]; [8]
  MIC (A): 150 µg/mL
[3]; Table 45, Compound A = azoxystrobin, alone or in combination with Compound B, 48 hours incubation
  MIC (A): 75 µg/mL
[6]
  effective solubilized concentration of working stock solution: 0.15 mg/mL

## CC=CC=CC(=O)[O-].[K+] [2,4-hexadienoic acid, K-salt]
[7]; after 48 hours
  Observed Efficacy (%): 13%
[7]; after 72 hours
  Observed Efficacy (%): 0%

## CCCCC(CC)C(=O)O (stereo not shown) [2-ethylhexanoic acid]
[1]; Sclerotinia sclerotiorum, Compound B alone, Sclerotinia sclerotiorum, incubation period of 7 days, read-out: MIC (B)
  MIC: 625 µg/mL
[2]; Compound B alone, read-out: MIC (B)
  MIC: 312 µg/mL
[3]; Botrytis cinerea, Botrytis cinerea, 48 hours incubation
  MIC: 312 µg/mL
[3]; Botrytis cinerea, Botrytis cinerea, incubation period of 48 hours
  MIC: 312 µg/mL
